The results in this text go back to US11492335B2, “Aryl or heteroaryl triazolone derivatives or salts thereof, or pharmaceutical compositions comprising the same” (YUHAN CORPORATION, priority 2018, dated 2022).

Molecules are shown by their SMILES. Where a name gives a salt, the structure may show the parent alone. Where only a bound is given, the exact number is not on record here.

Holding throughout (format): biochemical
Assay [1] concerns the target T1, recombinant human VAP-1 (Homo sapiens, UniProt Q16853).
T1 construct: purchased R&D systems
T1 sequence (Q16853 1-763): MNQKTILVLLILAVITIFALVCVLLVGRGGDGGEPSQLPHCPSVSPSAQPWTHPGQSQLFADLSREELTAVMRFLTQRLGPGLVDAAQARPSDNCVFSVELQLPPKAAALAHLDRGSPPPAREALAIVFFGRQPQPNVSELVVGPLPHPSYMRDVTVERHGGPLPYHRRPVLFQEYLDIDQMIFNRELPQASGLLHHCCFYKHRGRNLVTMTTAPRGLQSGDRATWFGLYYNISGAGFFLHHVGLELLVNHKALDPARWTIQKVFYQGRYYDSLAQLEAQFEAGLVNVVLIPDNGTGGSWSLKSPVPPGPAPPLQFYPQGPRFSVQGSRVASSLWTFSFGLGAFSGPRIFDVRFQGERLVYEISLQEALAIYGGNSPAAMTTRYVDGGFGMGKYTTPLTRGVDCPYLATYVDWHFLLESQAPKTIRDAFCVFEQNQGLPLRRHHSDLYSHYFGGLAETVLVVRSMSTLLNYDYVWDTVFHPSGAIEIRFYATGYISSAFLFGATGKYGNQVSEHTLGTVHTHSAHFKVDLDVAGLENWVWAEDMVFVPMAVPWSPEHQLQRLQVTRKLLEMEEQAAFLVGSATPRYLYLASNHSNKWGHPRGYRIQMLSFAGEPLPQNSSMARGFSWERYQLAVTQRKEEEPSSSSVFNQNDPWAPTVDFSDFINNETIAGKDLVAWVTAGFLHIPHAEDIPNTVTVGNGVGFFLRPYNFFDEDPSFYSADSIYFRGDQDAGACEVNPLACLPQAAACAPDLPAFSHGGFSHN
The assay can be described thus: Activity on recombinant human VAP-1, Amplex Red HRP-coupled hydrogen peroxide assay, benzylamine substrate. To be noted: recombinant human VAP-1, benzylamine substrate; read-out: Inhibitory Activity (IC50, nM) human VAP-1. The essentials:
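Enzyme in 50 mM sodium phosphate (pH 7.4) is exposed to test compound for 30 min at 37 °C. Benzylamine (1 mM) with HRP and Amplex Red then starts the reaction, and the fluorescence rate, relative to a DMSO-only control, gives IC50.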

Assay [2] concerns the target T2, recombinant human MAO-A (monoamine oxidase-A) (Homo sapiens, UniProt P21397).
T2 construct: purchased Sigma-Aldrich
T2 sequence (P21397 1-527): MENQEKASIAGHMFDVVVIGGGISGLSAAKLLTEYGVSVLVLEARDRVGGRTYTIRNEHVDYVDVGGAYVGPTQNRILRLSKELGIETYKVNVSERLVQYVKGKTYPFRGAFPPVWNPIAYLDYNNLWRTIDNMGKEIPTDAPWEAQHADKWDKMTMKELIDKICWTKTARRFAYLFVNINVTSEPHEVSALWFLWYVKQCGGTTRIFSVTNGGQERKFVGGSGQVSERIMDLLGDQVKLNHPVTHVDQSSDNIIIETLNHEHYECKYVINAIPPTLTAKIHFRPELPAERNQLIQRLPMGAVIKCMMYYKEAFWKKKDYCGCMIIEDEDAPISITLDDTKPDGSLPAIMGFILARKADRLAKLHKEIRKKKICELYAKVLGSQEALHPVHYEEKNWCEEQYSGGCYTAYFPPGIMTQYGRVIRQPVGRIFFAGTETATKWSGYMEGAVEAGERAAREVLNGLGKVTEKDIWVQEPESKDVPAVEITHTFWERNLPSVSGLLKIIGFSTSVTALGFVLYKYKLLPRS
In words: Activity on recombinant human MAO-A, Amplex Red method, 0.5 mM tyramine substrate. To be noted: 0.5 mM tyramine substrate, read-out: Inhibitory Activity (IC50, nM) MAO-A. The essentials: (§1)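 Enzyme in pH 7.4 phosphate buffer; 30 min, 37° C with compound (DMSO <1%); start with 200 uM Amplex Red + 1 U/mL HRP + tyramine 0.5 mM (MAO-A) or benzylamine 1 mM (MAO-B); kinetic read ex 544/em 590, 1-2 h; % rate decrease vs DMSO control → IC50, 4-parameter fit.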

Assay [3] addresses T3, recombinant human MAO-B (monoamine oxidase-B) (Homo sapiens, UniProt P27338).
T3 construct: purchased Sigma-Aldrich
T3 sequence (P27338 1-520): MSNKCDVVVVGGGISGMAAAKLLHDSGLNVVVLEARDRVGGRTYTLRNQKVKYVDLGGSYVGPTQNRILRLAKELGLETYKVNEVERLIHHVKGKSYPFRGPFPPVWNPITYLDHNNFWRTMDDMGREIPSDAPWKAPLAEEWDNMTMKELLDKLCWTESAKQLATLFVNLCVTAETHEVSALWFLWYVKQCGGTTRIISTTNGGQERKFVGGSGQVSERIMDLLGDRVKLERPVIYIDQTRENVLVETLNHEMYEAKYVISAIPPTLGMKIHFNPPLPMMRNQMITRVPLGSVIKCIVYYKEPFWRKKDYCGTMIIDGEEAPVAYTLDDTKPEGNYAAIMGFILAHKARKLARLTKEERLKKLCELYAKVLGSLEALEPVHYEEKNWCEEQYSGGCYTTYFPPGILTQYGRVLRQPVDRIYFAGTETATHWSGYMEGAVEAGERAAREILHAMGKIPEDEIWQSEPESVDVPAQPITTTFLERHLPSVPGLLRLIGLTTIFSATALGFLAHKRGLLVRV
In words: Activity on recombinant human MAO-B, Amplex Red method, 1 mM benzylamine substrate. To be noted: 1 mM benzylamine substrate, read-out: Inhibitory Activity (IC50, nM) MAO-B. The method in brief: as §1

The target in assay [4] is T4, recombinant human DAO (diamine oxidase) (Homo sapiens, UniProt P19801).
T4 construct: purchased R&D systems
T4 sequence (P19801 20-751): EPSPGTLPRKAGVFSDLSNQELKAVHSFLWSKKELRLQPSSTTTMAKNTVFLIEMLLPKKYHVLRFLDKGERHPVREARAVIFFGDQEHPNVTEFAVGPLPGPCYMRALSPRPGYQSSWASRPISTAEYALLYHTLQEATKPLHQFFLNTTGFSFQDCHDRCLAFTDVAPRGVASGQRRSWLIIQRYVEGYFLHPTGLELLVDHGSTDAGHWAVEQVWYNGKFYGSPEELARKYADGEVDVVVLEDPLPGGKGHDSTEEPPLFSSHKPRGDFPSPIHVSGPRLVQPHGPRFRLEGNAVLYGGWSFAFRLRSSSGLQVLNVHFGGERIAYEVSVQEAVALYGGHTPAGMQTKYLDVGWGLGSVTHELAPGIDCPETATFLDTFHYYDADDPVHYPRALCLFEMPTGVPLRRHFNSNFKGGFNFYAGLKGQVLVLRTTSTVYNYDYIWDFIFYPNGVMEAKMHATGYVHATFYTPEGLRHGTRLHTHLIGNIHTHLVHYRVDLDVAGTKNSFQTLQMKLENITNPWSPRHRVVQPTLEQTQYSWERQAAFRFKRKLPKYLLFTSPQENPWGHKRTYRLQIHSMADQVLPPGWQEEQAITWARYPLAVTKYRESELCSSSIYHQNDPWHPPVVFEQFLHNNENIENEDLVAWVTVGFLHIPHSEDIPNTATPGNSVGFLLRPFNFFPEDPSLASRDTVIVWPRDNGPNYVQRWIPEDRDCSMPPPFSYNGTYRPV
In words: Activity on recombinant human DAO, Amplex Red method, 1 mM putrescine substrate. The following applies: recombinant human DAO, 1 mM putrescine substrate; read-out: Inhibitory Activity (IC50, nM) DAO. The method in brief: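 Inhibition of recombinant human DAO (diamine oxidase, R&D systems) was assessed with the Amplex Red Hydrogen Peroxide Assay Kit. Hydrogen peroxide produced from 1 mM putrescine was detected through an HRP-coupled reaction that converts Amplex Red into fluorescent resorufin, read at 544 nm excitation and 590 nm emission. IC50 values came from four-parameter logistic fits in GraphPad Prism.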

By IC50 is commonly meant the concentration that inhibits the measured activity by half. Consider `NC/C(=C\F)Cn1ncn(-c2cc(-c3ccc(-c4ccon4)cc3)ccn2)c1=O` [Example 167, 2-[(2E)-2-(aminomethyl)-3-fluoroprop-2-en-1-yl]-4-{4-[4-(1,2-oxazol-3-yl)phenyl]pyridin-2-yl}-2,4-dihydro-3H-1,2,4-triazol-3-one], for which the IC50 in assay [1] was 1 nM; in assay [2], more than 100000 nM; in assay [3] it was more than 10000 nM; in assay [4], less than 30 nM.

On to `NC/C(=C\F)Cn1ncn(-c2cccc(-c3ccc(N4CCOCC4)nc3)n2)c1=O` [Example 189, 2-[(2E)-2-(aminomethyl)-3-fluoroprop-2-en-1-yl]-4-[6′-(morpholin-4-yl)-2,3′-bipyridin-6-yl]-2,4-dihydro-3H-1,2,4-triazol-3-one], for which the IC50 in assay [1] is 0.53 nM; in assay [2], more than 100000 nM; in assay [3], more than 10000 nM; in assay [4], less than 30 nM.

Regarding `Cc1cc(-n2cnn(C/C(=C/F)CN)c2=O)ncc1-c1ccc2sc(N)nc2c1` [Example 161, 4-[5-(2-amino-1,3-benzothiazol-5-yl)-4-methylpyridin-2-yl]-2-[(2E)-2-(aminomethyl)-3-fluoroprop-2-en-1-yl]-2,4-dihydro-3H-1,2,4-triazol-3-one hydrochloride], the half-maximal inhibitory concentration (IC50) in assay [1] is 6.5 nM; in assay [2], 6240 nM; in assay [3] it was 3140 nM; in assay [4], 2 nM.

For `NC/C(=C\F)Cn1ncn(-c2cccc(C#Cc3ccc4c(c3)NCCO4)n2)c1=O` [Example 250, 2-[(E)-2-(aminomethyl)-3-fluoro-allyl]-4-[6-[2-(3,4-dihydro-2H-1,4-benzoxazin-6-yl)ethynyl]-2-pyridyl]-1,2,4-triazol-3-one], the IC50 is 0.7 nM in assay [1], more than 100000 nM in assay [2], more than 10000 nM in assay [3] and 74 nM in assay [4].

Regarding `NC/C(=C\F)Cn1ncn(-c2cnc(-c3ccc4cn[nH]c4c3)cn2)c1=O` [Example 223, 2-[(2E)-2-(aminomethyl)-3-fluoroprop-2-en-1-yl]-4-[5-(1H-indazol-6-yl)pyrazin-2-yl]-2,4-dihydro-3H-1,2,4-triazol-3-one], the IC50 is 2.2 nM in assay [1], 21700 nM in assay [2], 10.5 nM in assay [3] and less than 100 nM in assay [4].

On to `CC(C)c1nc(-c2cccc(-c3cccc(-n4cnn(C/C(=C/F)CN)c4=O)n3)c2)no1` [Example 181, 2-[(2E)-2-(aminomethyl)-3-fluoroprop-2-en-1-yl]-4-(6-{3-[5-(propan-2-yl)-1,2,4-oxadiazol-3-yl]phenyl}pyridin-2-yl)-2,4-dihydro-3H-1,2,4-triazol-3-one], for which the IC50 in assay [1] was 1.9 nM; in assay [2] it was more than 100000 nM; in assay [3], 880 nM; in assay [4], 2.1 nM.

Turning to `Cc1ccc(-c2cc(C)c3c(c2)CCC(=O)N3)nc1-n1cnn(C/C(=C/F)CN)c1=O` [Example 215, 6-(6-{1-[(2E)-2-(aminomethyl)-3-fluoroprop-2-en-1-yl]-5-oxo-1,5-dihydro-4H-1,2,4-triazol-4-yl}-5-methylpyridin-2-yl)-8-methyl-3,4-dihydroquinolin-2(1H)-one hydrochloride], the IC50 in assay [1] came to 14 nM; in assay [2], 96000 nM; in assay [3] it was 3500 nM; in assay [4], 290 nM.

Consider `NC/C(=C\F)Cn1ncn(-c2cccc(C#Cc3ccc4c(n3)OCCN4)n2)c1=O` [Example 253, 2-[(E)-2-(aminomethyl)-3-fluoro-allyl]-4-[6-[2-(2,3-dihydro-1H-pyrido[2,3-b][1,4]oxazin-6-yl)ethynyl]-2-pyridyl]-1,2,4-triazol-3-one], for which the IC50 in assay [1] was 0.5 nM; in assay [2], more than 100000 nM; in assay [3], more than 10000 nM; in assay [4], 34 nM.

Turning to `NC/C(=C\F)Cn1ncn(-c2ncc(-c3cccc(-c4nnc[nH]4)c3)s2)c1=O` [Example 228, 2-[(2E)-2-(aminomethyl)-3-fluoroprop-2-en-1-yl]-4-{5-[3-(4H-1,2,4-triazol-3-yl)phenyl]-1,3-thiazol-2-yl}-2,4-dihydro-3H-1,2,4-triazol-3-one], the IC50 in assay [1] was 0.38 nM; in assay [2], more than 100000 nM; in assay [3], 9.2 nM; in assay [4] it was less than 100 nM.

For the molecule `NC/C(=C\F)Cn1ncn(-c2cccc(/C=C/c3ccc(C(F)(F)F)cc3)n2)c1=O` [Example 238, 2-[(2E)-2-(aminomethyl)-3-fluoroprop-2-en-1-yl]-4-(6-{(E)-2-[4-(trifluoromethyl)phenyl]ethenyl}pyridin-2-yl)-2,4-dihydro-3H-1,2,4-triazol-3-one Hydrochloride], the IC50 in assay [1] was 0.9 nM; in assay [2] it was 34000 nM; in assay [3], 1600 nM; in assay [4] it was 15 nM.
